# Patent US8350026B2, “VEGF-2 receptor and protein tyrosine kinase inhibitors and pharmaceutical use thereof” (Leo Pharma A/S, priority 2008, dated 2013)
# pIC50: −log10 of the molar value.
# Assays:
# [1] = Metabolic stability in human liver microsomes (HLM); assay type: in vitro ADME; design: CLint scaled: dose or concentration left out as unconfirmed; conditions: both sexes, pH 7.4; for CL/F at 0.5 μM: human liver microsomes 0.5 mg protein/mL, NADPH 1 mM, test compound 0.5 μM, 37° C., 30 minutes, read-out: HLM (apparent clearance)
# Experimental: The metabolic stability is tested in human liver microsomes (In Vitro Technologies, pooled mixed sexes, 20 mg/mL); a subcellular fraction containing major drug-metabolizing phase I enzymes, including the cytochrome P450 (CYP) family and flavin monooxygenases (FMO). The apparent clearance (mL/min/kg) is calculated as a measurement of test compound elimination from the liver.
# Procedure: A human microsome incubation mixture (0.5 mg microsomal protein/mL) in phosphate buffer (pH 7.4, 100 mM KH2PO4/10 mM MgCl2) is mixed with NADPH (1 mM). The mixture is pre-heated (7 min) to 37° C., test compound (0.5 μM) is added, and the mixture is incubated for 30 minutes. Incubations are run in duplicate and performed by a Tecan RSP. Samples are withdrawn at 0, 5, 10, 20, and 30 min and mixed with methanol containing internal standard to terminate all enzyme activity and precipitate proteins. […] Samples are analysed by LC-MS/MS.
# Data analysis: The logarithm of the peak area ratios of test compound to internal standard versus incubation time is plotted in a graph. The rate constant (k) of test compound depletion is calculated from the linear part of the curve (Eq. 1) and the half-time (t1/2) is calculated from the slope (Eq. 2). Rate constant(k)(min^−1)=−slope Eq. 1 Half-time(t1/2)(min)=ln 2/k Eq. 2
# Clint(mL/min/mg protein)=k/Protein concentration Eq. 3
# [2] = biological target: T1, VEGFR-2 (KDR) (Homo sapiens, UniProt P35968); test: KDR Assay - HTRF KinEASE-TK (in vitro KDR inhibition); assay type: biochemical; conditions: ATP 100 μM, 15 minutes at rt
# T1 construct: purchased Millipore 14-630
# Experimental: KDR Assay—HTRF KinEASE-TK
# The compounds to be tested were dissolved in DMSO at 10 mM, stored at −20° C. and protected from light. The maximum concentration of DMSO in the in vitro assay was 0.75%. Control samples received the same concentration of solvent as the samples treated with the test compounds.
# For the kinase assays, the HTRF KinEase™-TK kit (CisBio (#62TKOPEJ) was used. All components in HTRF KinEase™-TK kit were handled according to suppliers description. Briefly, DMSO stock solution of compounds (100% DMSO) were prediluted to 6% DMSO in 50 mM Hepesbuffer+0.05% BSA (Sigma Aldrich (A3294)) before transferring 1 μl to a 384-well Proxyplate (Perkin Elmer (#6008289) at RT. Kinase Substrate (2 μL, CisBio) was added to Proxyplate with compound. Enzyme mix (5 μL, Millipore (14-630)) with ATP (100 μM, Sigma Aldrich (A7699)), MgCl2 (5 mM; Sigma Aldrich M1028) and SEB (50 nM, CisBio) was added to start the reaction. The plates were incubated for 15 minutes at rt. The assay was stopped by addition of Detection mix (4 μL, CisBio) and plates were sealed and spun for 1 min at 1000 rpm. The plates were incubated in darkness over night at rt. The plates were read on an Envision (Perkin Elmer) plate reader. Signal from two wave lengths (665 and 620 nm) upon excitation at 340 nm in accordance to manufactures instructions. Briefly, fluorescence was measured for 400 μs between flashes after a delay time of 400 μs. The background measured in the absence of enzyme was subtracted from all samples. The molar concentrations that inhibited 50% of the maximal enzymatic activity (IC50) were calculated using a four-parameter sigmoid curve fit model of the dose-response curve, based on the following equation: y=((a−d)/(1+(x/c)^b))+d; where a is the minimum value, d is the maximum value, c is the IC50 value and […].
# [3] = human, human liver microsomes, HLM assay reference compounds, read-out: intrinsic clearance values of HLM assay reference compounds
# T1 sequence (P35968 790-1356 limits assumed): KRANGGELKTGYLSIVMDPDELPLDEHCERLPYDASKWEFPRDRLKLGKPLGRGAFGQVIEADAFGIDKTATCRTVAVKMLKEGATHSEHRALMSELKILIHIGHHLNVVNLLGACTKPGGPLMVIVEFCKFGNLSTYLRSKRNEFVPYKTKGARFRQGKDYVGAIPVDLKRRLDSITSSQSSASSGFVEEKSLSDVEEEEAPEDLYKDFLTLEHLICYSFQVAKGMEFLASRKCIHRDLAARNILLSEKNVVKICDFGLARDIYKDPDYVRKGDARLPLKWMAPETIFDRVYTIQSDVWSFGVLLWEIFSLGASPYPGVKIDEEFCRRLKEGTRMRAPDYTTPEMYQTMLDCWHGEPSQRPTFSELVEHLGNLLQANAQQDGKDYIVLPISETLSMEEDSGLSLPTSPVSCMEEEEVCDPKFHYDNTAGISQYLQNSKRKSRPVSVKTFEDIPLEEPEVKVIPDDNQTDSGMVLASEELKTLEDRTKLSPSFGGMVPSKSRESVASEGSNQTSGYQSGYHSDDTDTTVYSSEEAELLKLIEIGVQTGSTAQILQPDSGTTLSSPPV
Compound,CL/F at 0.5 μM [1] [mL/min/kg],pIC50 [2],"CLint scaled [1, 3] [mL/min/kg]","CLint scaled at 0.5 μM [1, 3] [mL/min/kg]"
"CC(=O)Nc1cc(CNc2ccccc2C(=O)NCCC2CCCC2)ccn1 [Compound 102, 2-[(2-Acetylamino-pyridin-4-ylmethyl)-amino]-N-(2-cyclopentyl-ethyl)-benzamide]",> 200,8.10,–,–
"COC(=O)Nc1cc(CNc2ccccc2C(=O)NCCC(C)(C)C)ccn1 [Compound 101, (4-{[2-(3,3-Dimethyl-butylcarbamoyl)-phenylamino]-methyl}-pyridin-2-yl)-carbamic acid methyl ester]",135,7.96,–,–
"O=C(Nc1cc(CNc2ccccc2C(=O)NCCC2CCCC2)ccn1)c1ccco1 [Compound 105, Furan-2-carboxylic acid (4-{[2-(2-cyclopentyl-ethylcarbamoyl)-phenylamino]-methyl}-pyridin-2-yl)-amide]",> 200,7.37,–,–
"CC(C)(C)CCNC(=O)c1ccccc1NCc1ccnc(NC(=O)c2ccco2)c1 [Compound 107, Furan-2-carboxylic acid (4-{[2-(3,3-dimethyl-butylcarbamoyl)-phenylamino]-methyl}-pyridin-2-yl)-amide]",> 200,7.41,–,–
"CCC(CC)CCNC(=O)c1ccccc1NCc1ccnc(NC(C)=O)c1 [Compound 103, 2-[(2-Acetylamino-pyridin-4-ylmethyl)-amino]-N-(3-ethyl-pentyl)-benzamide]",> 200,7.72,–,–
"CCC(CC)CCNC(=O)c1ccccc1NCc1ccnc(NC(=O)c2ccco2)c1 [Compound 109, Furan-2-carboxylic acid (4-{[2-(3-ethyl-pentylcarbamoyl)-phenylamino]-methyl}-pyridin-2-yl)-amide]",> 200,7.28,–,–
"CCC(CC)CCNC(=O)c1ccccc1NCc1ccnc(NC(=O)c2cnco2)c1 [Compound 104, Oxazole-5-carboxylic acid (4-{[2-(3-ethyl-pentylcarbamoyl)-phenylamino]-methyl}-pyridin-2-yl)-amide]",120,7.82,–,–
"O=C(Nc1cc(CNc2ccccc2C(=O)NCCC2=CCCCC2)ccn1)c1ccco1 [Compound 108, Furan-2-carboxylic acid (4-{[2-(2-cyclohex-1-enyl-ethylcarbamoyl)-phenylamino]-methyl}-pyridin-2-yl)-amide]",> 200,7.36,–,–
"Cc1ncc2n1-c1ccc(Cl)cc1C(c1ccccc1F)=NC2 [Midazolam, reference compound]",–,–,> 200,–
"CC(C)CCCNC(=O)c1ccccc1NCc1ccnc(NC(=O)c2ccco2)c1 [Compound 106, Furan-2-carboxylic acid (4-{[2-(4-methyl-pentylcarbamoyl)-phenylamino]-methyl}-pyridin-2-yl)-amide]",> 200,7.77,–,–
"CC(=O)CC(c1ccccc1)c1c(O)c2ccccc2oc1=O (centres unmarked) [Warfarin, reference compound]",–,–,–,< 10
